Read-outs that look alike come from different tables or passages of the source.
System: INS-1 cells
Experiment: Cell survival assay, intracellular ATP (CellTiter-Glo), INS-1 cells treated with Tm
Format: cell-based, rat
Experimental: A structure-activity-relationship (SAR) study was thus conducted to improve the weak potency of lead compound 1. Newly synthesized or commercially available compounds were tested for their β-cell-protective activity against ER stress in rat INS-1 β-cells. […] The maximum activities and the concentrations that reach half-maximal activity (EC50) of the compounds were evaluated by the degree of increase in viability of INS-1 cells co-treated with the compounds in the presence of Tm compared with Tm treatment alone. Maximum activity value in the tables is reported as % rescue from Tm (0.1 μg/mL)-induced reduction of cell viability. The values for Tm treatment alone and control (DMSO, without Tm) treatment are designated as 0% and 100%, respectively in all tables. EC50 values (the concentrations that reach half-maximal activity) for INS-1 cell viability were calculated with GraphPad Prism from the data of ten 2-fold serial titration points in all tables. All experiments were performed in triplicate in all tables.
INS-1 cells were cultured in RPMI 1640 (Corning, N.Y., USA) supplemented with 10% FBS (Atlanta Biologicals, Norcross, Ga.), HEPES (10 mM, Life Technologies, CA, USA), sodium pyruvate (1 mM, Corning), 2-mercaptoethanol (50 μM, Sigma, St Louis, Mo., USA) and antibiotics (100 UI/mL penicillin and 100 μg/mL streptomycin, Corning). βTC6 cells were cultured in DMEM (Corning) with 15% FBS, sodium pyruvate (1 mM, Corning), non-essential amino acids (1 mM, Thermo, Ill., USA), GlutaMAX (1 mM, Life Technologies) and antibiotics (100 UI/mL penicillin and 100 μg/mL streptomycin). All cells were grown at 37° C. in a humidified 5% CO2 atmosphere.
INS-1 cells or βTC6 cells were seeded at 3×10^3 cells/well in a 384-well plate and treated with compounds at the indicated concentrations. After 3 d treatment, the medium was aspirated and 20 μL/well of CellTiter-Glo reagent (Promega, WI, USA) was added for the detection of intracellular ATP levels. Cell viability was measured with an EnVision multilabel plate reader (PerkinElmer, MA, USA).

For `O=C(NCc1ccc(C(F)(F)F)cc1)c1cccc(CN2CCCCC2)c1` [Compound 13d, N-(4-trifluoromethylphenmethyl)-3-(N-piperidinyl)methyl benzamide], the “range of concentrations retaining maximum β-cell-protective activity” value (INS-1 cells, Tm 0.1 μg/mL, 72 h, FIG. 2A) was 0.16 to 20 µM, the “maximum activity (β-cell-protective activity)” value (INS-1 cells, Tm-induced ER stress) was ~100% and the EC50 (INS-1 cells, Tm-induced ER stress, read-out: EC50) was 32 nM. For the same molecule, the “effect of compound on its own on β-cell viability” value (INS-1 cells, no Tm, 72 h, FIG. 2D) was “no effect”, the “Maximum activity (% rescue)” value (Table 5, INS-1 cells, Tm 0.1 μg/mL, 72 h, Tm alone 0%, DMSO control 100%) was 97% ± 8% and the “viability of INS-1 β-cells under Tm treatment (intracellular ATP)” value (Tm 0.1 μg/mL, 72 h, FIG. 2A) was “rescued the viability of INS-1 β-cells under Tm treatment in a dose-dependent manner”. The EC50 (running text b108, read-out: EC50 value against ER stress) was ~30 nM.

Source: patent US11203582B2, “Benzamide derivatives for inhibiting endoplasmic reticulum (ER) stress” (The Board of Regents of the University of Oklahoma, priority 2017, dated 2021)
